{"source": "paper PMC5218480", "about": "(PLoS ONE, 2017)", "system": "MV-4-11 cells", "experiment": "Gene expression microarray analysis (Affymetrix PrimeView) and GSEA", "type": "cell-based, human", "parameters": "RFU PODN (11730768_x_at) / Fold change /veh PODN (11730768_x_at) / RFU LINC00158 (11744669_a_at) / Fold change /veh LINC00158 (11744669_a_at) / RFU DUSP10 (11751237_a_at) / Fold change /veh DUSP10 (11751237_a_at) / RFU ID3 (11757404_x_at) / Fold change /veh ID3 (11757404_x_at) / RFU PLEKHG5 (11737974_s_at) / Fold change /veh PLEKHG5 (11737974_s_at) / RFU LRRC4B (11730491_at) / Fold change /veh LRRC4B (11730491_at) / RFU GIMAP4 (11747438_a_at) / Fold change /veh GIMAP4 (11747438_a_at) / RFU KRT8 (11758183_x_at) / Fold change /veh KRT8 (11758183_x_at) / RFU CNN1 (11734310_a_at) / Fold change /veh CNN1 (11734310_a_at) / RFU VPS37D (11726825_at) / Fold change /veh VPS37D (11726825_at) / RFU C10orf10 (11716522_x_at) / Fold change /veh C10orf10 (11716522_x_at) / RFU KIR2DL2 /// KIR2DL4 /// KIR2DL5A /// KIR2DL5B /// KIR2DS1 /// KIR2DS2 /// KIR2DS3 /// KIR2DS4 /// KIR3DL3 /// KIR3DL3 /// KIR3DS1 (11738374_at) / Fold change /veh KIR2DL2 /// KIR2DL4 /// KIR2DL5A /// KIR2DL5B /// KIR2DS1 /// KIR2DS2 /// KIR2DS3 /// KIR2DS4 /// KIR3DL3 /// KIR3DL3 /// KIR3DS1 (11738374_at) / RFU C1QL1 (11718748_at) / Fold change /veh C1QL1 (11718748_at) / RFU TMPRSS4 (11747572_a_at) / Fold change /veh TMPRSS4 (11747572_a_at) / RFU HAMP (11756126_x_at) / Fold change /veh HAMP (11756126_x_at) / RFU RNFT2 (11725882_a_at) / Fold change /veh RNFT2 (11725882_a_at) / RFU NR4A2 (11747474_a_at) / Fold change /veh NR4A2 (11747474_a_at) / RFU ABCC12 (11746883_a_at) / Fold change /veh ABCC12 (11746883_a_at) / RFU TMEM136 (11760407_x_at) / Fold change /veh TMEM136 (11760407_x_at) / RFU CLDN22 /// WWC2 (11732394_at) / Fold change /veh CLDN22 /// WWC2 (11732394_at) / RFU HLA-DPB1 (11760878_x_at) / Fold change /veh HLA-DPB1 (11760878_x_at) / RFU SPINT1 (11716480_a_at) / Fold change /veh SPINT1 (11716480_a_at) / RFU GAP43 (11754022_s_at) / Fold change /veh GAP43 (11754022_s_at) / RFU A4GNT (11735810_at) / Fold change /veh A4GNT (11735810_at) / RFU PRB3 (11715151_x_at) / Fold change /veh PRB3 (11715151_x_at) / RFU TUBB4B (11761932_at) / Fold change /veh TUBB4B (11761932_at) / RFU CAPN14 (11732068_a_at) / Fold change /veh CAPN14 (11732068_a_at) / RFU TMCC2 (11721928_a_at) / Fold change /veh TMCC2 (11721928_a_at) / RFU IRGQ (11745062_a_at) / Fold change /veh IRGQ (11745062_a_at) / RFU FAM174B (11720279_a_at) / Fold change /veh FAM174B (11720279_a_at) / RFU TMPRSS4 (11748680_a_at) / Fold change /veh TMPRSS4 (11748680_a_at) / RFU FAM212B (11763350_a_at) / Fold change /veh FAM212B (11763350_a_at) / RFU PLEKHG5 (11743358_a_at) / Fold change /veh PLEKHG5 (11743358_a_at) / RFU ZSCAN30 (11745921_a_at) / Fold change /veh ZSCAN30 (11745921_a_at) / RFU CMKLR1 (11741424_a_at) / Fold change /veh CMKLR1 (11741424_a_at) / RFU LOC101060620 /// MAPK8IP1 (11723275_at) / Fold change /veh LOC101060620 /// MAPK8IP1 (11723275_at) / RFU SPTSSB (11747773_x_at) / Fold change /veh SPTSSB (11747773_x_at) / RFU PRSS12 (11739890_at) / Fold change /veh PRSS12 (11739890_at) / RFU BIN1 (11741810_x_at) / Fold change /veh BIN1 (11741810_x_at) / RFU WNT11 (11732464_a_at) / Fold change /veh WNT11 (11732464_a_at) / RFU C10orf10 (11716521_a_at) / Fold change /veh C10orf10 (11716521_a_at) / RFU C5orf56 (11738089_at) / Fold change /veh C5orf56 (11738089_at) / RFU CYB561 (11721691_x_at) / Fold change /veh CYB561 (11721691_x_at) / RFU ANKRD19P (11752326_a_at) / Fold change /veh ANKRD19P (11752326_a_at) / RFU OR2T12 /// OR2T33 /// OR2T8 (11738714_s_at) / Fold change /veh OR2T12 /// OR2T33 /// OR2T8 (11738714_s_at) / RFU VCAN (11748164_a_at) / Fold change /veh VCAN (11748164_a_at) / RFU JSRP1 (11732532_at) / Fold change /veh JSRP1 (11732532_at) / RFU KRTAP10-11 (11738290_x_at) / Fold change /veh KRTAP10-11 (11738290_x_at) / RFU MYO3A (11730013_a_at) / Fold change /veh MYO3A (11730013_a_at) / RFU EBF3 (11725865_a_at) / Fold change /veh EBF3 (11725865_a_at) / RFU CAMK2N1 (11719241_x_at) / Fold change /veh CAMK2N1 (11719241_x_at) / RFU C5orf56 (11738088_a_at) / Fold change /veh C5orf56 (11738088_a_at) / RFU OLFML3 (11715873_a_at) / Fold change /veh OLFML3 (11715873_a_at) / RFU LOC100653217 /// NTM (11731650_a_at) / Fold change /veh LOC100653217 /// NTM (11731650_a_at) / RFU MAPK11 (11762145_a_at) / Fold change /veh MAPK11 (11762145_a_at) / RFU FIZ1 (11724087_x_at) / Fold change /veh FIZ1 (11724087_x_at) / RFU OASL (11726364_x_at) / Fold change /veh OASL (11726364_x_at) / RFU SOX15 (11748057_x_at) / Fold change /veh SOX15 (11748057_x_at) / RFU CD79A (11719716_a_at) / Fold change /veh CD79A (11719716_a_at) / RFU HIST1H1D (11736915_at) / Fold change /veh HIST1H1D (11736915_at) / RFU CASKIN2 (11723855_a_at) / Fold change /veh CASKIN2 (11723855_a_at) / RFU LOC730098 (11760151_x_at) / Fold change /veh LOC730098 (11760151_x_at) / RFU OR4N2 (11742367_at) / Fold change /veh OR4N2 (11742367_at) / RFU PRRT2 (11749266_a_at) / Fold change /veh PRRT2 (11749266_a_at) / RFU SNX32 (11753110_a_at) / Fold change /veh SNX32 (11753110_a_at) / RFU CDHR5 (11726645_a_at) / Fold change /veh CDHR5 (11726645_a_at) / RFU RCAN1 (11760418_a_at) / Fold change /veh RCAN1 (11760418_a_at) / RFU FAM167A (11723789_a_at) / Fold change /veh FAM167A (11723789_a_at) / RFU FAM26E (11764081_at) / Fold change /veh FAM26E (11764081_at) / RFU ISYNA1 (11749810_s_at) / Fold change /veh ISYNA1 (11749810_s_at) / RFU ACY1 (11761880_at) / Fold change /veh ACY1 (11761880_at) / RFU 11764098_at / Fold change /veh 11764098_at / RFU SAMD14 (11745864_x_at) / Fold change /veh SAMD14 (11745864_x_at) / RFU NPB (11741838_a_at) / Fold change /veh NPB (11741838_a_at) / RFU TMPRSS6 (11731388_a_at) / Fold change /veh TMPRSS6 (11731388_a_at) / RFU KRTAP10-2 (11738614_at) / Fold change /veh KRTAP10-2 (11738614_at) / RFU ARHGAP8 /// PRR5-ARHGAP8 (11727945_x_at) / Fold change /veh ARHGAP8 /// PRR5-ARHGAP8 (11727945_x_at) / RFU KRTAP5-7 /// NADSYN1 (11734609_at) / Fold change /veh KRTAP5-7 /// NADSYN1 (11734609_at) / RFU RASL12 (11751679_a_at) / Fold change /veh RASL12 (11751679_a_at) / RFU CDKN2B (11736163_a_at) / Fold change /veh CDKN2B (11736163_a_at) / RFU PRF1 (11729649_at) / Fold change /veh PRF1 (11729649_at) / RFU, ZNF638 /// ZNF638-IT1 / Fold change vs veh, ZNF638 /// ZNF638-IT1 / RFU, PANK3 / Fold change vs veh, PANK3 / RFU, SH3YL1 / Fold change vs veh, SH3YL1 / RFU, ZEB2 / Fold change vs veh, ZEB2 / RFU, NRIP1 / Fold change vs veh, NRIP1 / RFU, PTTG1IP / Fold change vs veh, PTTG1IP / RFU, CAPN2 / Fold change vs veh, CAPN2 / RFU, MED14 / Fold change vs veh, MED14 / RFU, SNORA58 / Fold change vs veh, SNORA58 / RFU, C1orf63 / Fold change vs veh, C1orf63 / RFU, LRRFIP1 / Fold change vs veh, LRRFIP1 / RFU, NDUFAF7 / Fold change vs veh, NDUFAF7 / RFU, SLC12A2 / Fold change vs veh, SLC12A2 / RFU, IBTK / Fold change vs veh, IBTK / RFU, ESF1 / Fold change vs veh, ESF1 / Fold change vs veh, TMEM50B / RFU, TAOK1 / Fold change vs veh, TAOK1 / RFU, ACBD3 / Fold change vs veh, ACBD3 / RFU, TMA16 / Fold change vs veh, TMA16 / RFU, RWDD3 / Fold change vs veh, RWDD3 / RFU, BCAT1 / Fold change vs veh, BCAT1 / RFU, EDEM3 / Fold change vs veh, EDEM3 / RFU, TMEM33 / Fold change vs veh, TMEM33 / RFU, WDR75 / Fold change vs veh, WDR75 / RFU, AHCTF1 / Fold change vs veh, AHCTF1 / RFU, TFRC / Fold change vs veh, TFRC / RFU, ZDHHC17 / Fold change vs veh, ZDHHC17 / RFU, NOM1 / Fold change vs veh, NOM1 / RFU, ARL8B / Fold change vs veh, ARL8B / RFU, ZBTB11 / Fold change vs veh, ZBTB11 / RFU, TAMM41 / Fold change vs veh, TAMM41 / RFU, KIAA1704 /// LOC100996395 / Fold change vs veh, KIAA1704 /// LOC100996395 / RFU, ING1 / Fold change vs veh, ING1 / RFU, TRMT61B / Fold change vs veh, TRMT61B / RFU, FUBP3 / Fold change vs veh, FUBP3 / RFU, TP53 / Fold change vs veh, TP53 / RFU, TNKS2 / Fold change vs veh, TNKS2 / RFU, ZFP14 / Fold change vs veh, ZFP14 / RFU, ACTR2 / Fold change vs veh, ACTR2 / RFU, PPP3R1 / Fold change vs veh, PPP3R1 / RFU, PIK3R1 / Fold change vs veh, PIK3R1 / RFU, HNRNPA1 / Fold change vs veh, HNRNPA1 / RFU, RNF170 / Fold change vs veh, RNF170 / RFU, ZNF28 / Fold change vs veh, ZNF28 / RFU, RNGTT / Fold change vs veh, RNGTT / RFU, OGT / Fold change vs veh, OGT / RFU, BRD1 / Fold change vs veh, BRD1 / RFU, MARS / Fold change vs veh, MARS / RFU, ZNF655 / Fold change vs veh, ZNF655 / RFU, FAHD1 / Fold change vs veh, FAHD1 / RFU, BDP1 / Fold change vs veh, BDP1 / RFU, LRRCC1 / Fold change vs veh, LRRCC1 / RFU, ARID1A / Fold change vs veh, ARID1A / RFU, ZNF146 / Fold change vs veh, ZNF146 / RFU, ZNF330 / Fold change vs veh, ZNF330 / RFU, GPN3 / Fold change vs veh, GPN3 / RFU, C9orf123 / Fold change vs veh, C9orf123 / RFU, N4BP2L2 / Fold change vs veh, N4BP2L2 / RFU, ARFIP1 / Fold change vs veh, ARFIP1 / RFU, FAM179B / Fold change vs veh, FAM179B / RFU, BCL10 / Fold change vs veh, BCL10 / RFU, UHRF1BP1L / Fold change vs veh, UHRF1BP1L / RFU, BET1 / Fold change vs veh, BET1 / RFU, CNOT2 / Fold change vs veh, CNOT2 / RFU, ZNF268 / Fold change vs veh, ZNF268 / Fold change vs veh, ZNF507 / RFU, DGCR2 / Fold change vs veh, DGCR2 / RFU, WDSUB1 / Fold change vs veh, WDSUB1 / Fold change vs veh, HSP90B1 /// MIR3652 / RFU, ADSS / Fold change vs veh, ADSS / RFU, GK / Fold change vs veh, GK / RFU, ZNF148 / Fold change vs veh, ZNF148 / RFU, TAF9 / Fold change vs veh, TAF9 / RFU, SLC1A5 / Fold change vs veh, SLC1A5 / RFU, SLMO2 / Fold change vs veh, SLMO2 / RFU, ABCC4 / Fold change vs veh, ABCC4 / RFU, LOC101060439 /// RAP1B / Fold change vs veh, LOC101060439 /// RAP1B / RFU, RFX7 / Fold change vs veh, RFX7 / RFU, GTPBP10 / Fold change vs veh, GTPBP10 / RFU, CNEP1R1 / Fold change vs veh, CNEP1R1 / RFU, BIVM-ERCC5 /// ERCC5 / Fold change vs veh, BIVM-ERCC5 /// ERCC5 / RFU, ILF3 / Fold change vs veh, ILF3 / RFU 11762660_at / Fold change /veh 11762660_at / RFU VCAN (11757783_s_at) / Fold change /veh VCAN (11757783_s_at) / RFU DDX43 (11728927_at) / Fold change /veh DDX43 (11728927_at) / RFU KRT8 (11758188_x_at) / Fold change /veh KRT8 (11758188_x_at) / RFU NKD1 (11759106_at) / Fold change /veh NKD1 (11759106_at) / RFU SRD5A1 (11742802_a_at) / Fold change /veh SRD5A1 (11742802_a_at) / RFU TPSAB1 /// TPSB2 (11721975_s_at) / Fold change /veh TPSAB1 /// TPSB2 (11721975_s_at) / RFU GSTM3 (11746129_a_at) / Fold change /veh GSTM3 (11746129_a_at) / RFU IL23R (11737362_x_at) / Fold change /veh IL23R (11737362_x_at) / RFU TMEM51 (11727254_a_at) / Fold change /veh TMEM51 (11727254_a_at) / RFU PIWIL2 (11732686_x_at) / Fold change /veh PIWIL2 (11732686_x_at) / RFU ORM1 (11744905_x_at) / Fold change /veh ORM1 (11744905_x_at) / RFU CCDC152 (11743942_at) / Fold change /veh CCDC152 (11743942_at) / RFU ECM1 (11717891_a_at) / Fold change /veh ECM1 (11717891_a_at) / RFU IL23R (11748794_a_at) / Fold change /veh IL23R (11748794_a_at) / RFU TNFAIP8L3 (11732012_x_at) / Fold change /veh TNFAIP8L3 (11732012_x_at) / RFU MBOAT4 (11741988_at) / Fold change /veh MBOAT4 (11741988_at) / RFU 11764193_at / Fold change /veh 11764193_at / RFU TMEM53 (11763286_at) / Fold change /veh TMEM53 (11763286_at) / RFU MAGEB2 (11727129_at) / Fold change /veh MAGEB2 (11727129_at) / RFU TMEM200A (11744735_a_at) / Fold change /veh TMEM200A (11744735_a_at) / RFU CCDC152 (11751479_a_at) / Fold change /veh CCDC152 (11751479_a_at) / RFU FAM211A (11726209_a_at) / Fold change /veh FAM211A (11726209_a_at) / RFU RGS16 (11746705_a_at) / Fold change /veh RGS16 (11746705_a_at) / RFU VCAN (11755009_s_at) / Fold change /veh VCAN (11755009_s_at) / RFU RHOB (11743442_s_at) / Fold change /veh RHOB (11743442_s_at) / RFU RGS16 (11720943_a_at) / Fold change /veh RGS16 (11720943_a_at) / RFU RGS16 (11720944_at) / Fold change /veh RGS16 (11720944_at) / RFU, VPS4B / Fold change vs veh, VPS4B / RFU, CREB1 / Fold change vs veh, CREB1 / RFU, DNAJC13 / Fold change vs veh, DNAJC13 / RFU, GNAQ / Fold change vs veh, GNAQ / RFU, CDK5R1 / Fold change vs veh, CDK5R1 / RFU, ZRANB3 / Fold change vs veh, ZRANB3 / RFU, CUL4A / Fold change vs veh, CUL4A / RFU, CCNY / Fold change vs veh, CCNY / RFU, UFL1 / Fold change vs veh, UFL1 / RFU, COG3 / Fold change vs veh, COG3 / RFU, DIAPH2 / Fold change vs veh, DIAPH2 / RFU, SKA2 / Fold change vs veh, SKA2 / RFU, AFF3 / Fold change vs veh, AFF3 / RFU, LMF1 / Fold change vs veh, LMF1 / RFU, IPO11 / Fold change vs veh, IPO11 / RFU, DFFB / Fold change vs veh, DFFB / RFU, FOXP1 / Fold change vs veh, FOXP1 / RFU, CARD8 / Fold change vs veh, CARD8 / RFU, STRN3 / Fold change vs veh, STRN3 / RFU, ADK / Fold change vs veh, ADK / RFU, RASSF2 / Fold change vs veh, RASSF2 / RFU, WIPF1 / Fold change vs veh, WIPF1 / RFU, LARP1B / Fold change vs veh, LARP1B / RFU, RASA1 / Fold change vs veh, RASA1 / RFU, RB1 / Fold change vs veh, RB1 / RFU, PPFIA1 / Fold change vs veh, PPFIA1 / RFU, MAT2A / Fold change vs veh, MAT2A / RFU, CCT5 / Fold change vs veh, CCT5 / RFU, WDR92 / Fold change vs veh, WDR92 / RFU, CUX1 / Fold change vs veh, CUX1 / RFU, TTC7A / Fold change vs veh, TTC7A / RFU, TMEM135 / Fold change vs veh, TMEM135 / RFU, DEPTOR / Fold change vs veh, DEPTOR / RFU, CPM / Fold change vs veh, CPM / RFU, DNAJB6 / Fold change vs veh, DNAJB6 / RFU, CACNA2D3 / Fold change vs veh, CACNA2D3 / RFU, DTX4 / Fold change vs veh, DTX4 / RFU, TFCP2 / Fold change vs veh, TFCP2 / RFU, GMCL1 /// GMCL1P1 / Fold change vs veh, GMCL1 /// GMCL1P1 / RFU, AEBP2 / Fold change vs veh, AEBP2 / RFU, SNHG1 /// SNORD22 /// SNORD25 /// SNORD26 /// SNORD27 /// SNORD28 /// SNORD29 /// SNORD31 / Fold change vs veh, SNHG1 /// SNORD22 /// SNORD25 /// SNORD26 /// SNORD27 /// SNORD28 /// SNORD29 /// SNORD31 / Fold change (Aza/veh), C12orf56 (ProbeSet 11735607_a_at) / Fold change (ACY-1035/veh), C12orf56 (ProbeSet 11735607_a_at) / Fold change (Aza/veh), FGFR1OP (ProbeSet 11751329_s_at) / Fold change (ACY-1035/veh), FGFR1OP (ProbeSet 11751329_s_at) / Fold change (Aza/veh), VPS36 (ProbeSet 11739960_a_at) / Fold change (ACY-1035/veh), VPS36 (ProbeSet 11739960_a_at) / RFU SYPL1 (11715823_x_at) / Fold change /veh SYPL1 (11715823_x_at) / RFU IGFBP7 (11715501_s_at) / Fold change /veh IGFBP7 (11715501_s_at) / RFU REEP3 (11722064_at) / Fold change /veh REEP3 (11722064_at) / RFU IGLL1 (11728026_x_at) / Fold change /veh IGLL1 (11728026_x_at): dose or concentration left out as unconfirmed", "details": "gene VPS36; Azacitidine vs DMSO; LIST F"}
{"smiles": "Nc1ncn([C@@H]2O[C@H](CO)[C@@H](O)[C@H]2O)c(=O)n1", "note": "[azacitidine]", "values": [{"measurement": "Fold change (Aza/veh), VPS36 (ProbeSet 11739960_a_at)", "value": 1.14}]}
